From patent publication US20240122180A1, “FUNGICIDAL HALOMETHYL KETONES AND HYDRATES AND THEIR MIXTURES” (FMC Corporation, priority 2020, published 2024)
Marks after values point to notes of the source that are not given here.

Assays:
Assay type in all cases: in vivo
[1] = tested on: Puccinia recondita f. sp. tritici (the causal agent of wheat leaf rust); test: Test B: preventive spray on wheat seedlings, disease rating (100 = 100% control; * 50 ppm, ** 10 ppm, *** 250 ppm); conditions: 100 = 100% disease control
Procedure, shortened: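 Wheat seedlings sprayed to run-off with compound in acetone/water (50/50) containing 250 ppm PEG400, inoculated next day with Puccinia recondita f. sp. tritici spores. Held 24 h saturated at 20° C, then 6 days at 20° C; disease control rated 0–100 relative to controls.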

[2] = tested on: Uncinula necator (the causal agent of grape powdery mildew); test: Test C: preventive spray on grape seedlings, disease rating (100 = 100% control; * 50 ppm, ** 10 ppm, *** 250 ppm); conditions: 100 = 100% disease control
Text: (§1) General protocol for preparing test suspensions for Tests A-E: the test compounds were first dissolved in acetone in an amount equal to 3% of the final volume and then suspended at the desired concentration (in ppm) in acetone and purified water (50/50 mix by volume) containing 250 ppm of the surfactant […] (polyhydric alcohol esters). The resulting test suspensions were then used in Tests A-E.
The test solution was sprayed to the point of run-off on grape seedlings. The following day the seedlings were inoculated with a spore suspension of Uncinula necator (the causal agent of grape powdery mildew) and incubated in a growth chamber at 20° C. for 12 days, after which time disease ratings were made.
(§2) Results for Tests A-E are given in Table A. In the Table, a rating of 100 indicates 100% disease control and a rating of 0 indicates no disease control (relative to the controls). An asterisk “*” or a double asterisk “**” or a triple asterisk “***” next to the rating value indicates a 50 ppm, 10 ppm and 250 ppm test suspension was used, respectively. A dash (-) indicates the compound was not tested.

[3] = tested on: Blumeria graminis f. sp. tritici (the causal agent of wheat powdery mildew); test: Test E: preventive spray on wheat seedlings, visual disease rating (100 = 100% control; * 50 ppm, ** 10 ppm, *** 250 ppm); conditions: 100 = 100% disease control; for pest or weed control at 250 ppm / Test E disease control rating: 250 ppm test suspension
Text: as §1
The test suspension was sprayed to the point of run-off on wheat seedlings. The following day the seedlings were inoculated with a spore dust of Blumeria graminis f. sp. tritici, (also known as Erysiphe graminis f. sp. tritici, the causal agent of wheat powdery mildew) and incubated in a growth chamber at 20° C. for 8 days, after which time visual disease ratings were made.
as §2

[4] = tested on: Zymoseptoria tritici (the causal agent of wheat leaf blotch); test: Test D: preventive spray on wheat seedlings, disease rating (100 = 100% control; * 50 ppm, ** 10 ppm, *** 250 ppm); conditions: 100 = 100% disease control; for pest or weed control at 250 ppm / Test D disease control rating: 250 ppm test suspension
Text: as §1
The test solution was sprayed to the point of run-off on wheat seedlings. The following day the seedlings were inoculated with a spore suspension of Zymoseptoria tritici (the causal agent of wheat leaf blotch) and incubated in a saturated atmosphere at 24° C. for 48 h, and then moved to a growth chamber at 20° C. for 17 days, after which time disease ratings were made.
as §2

[5] = tested on: Phakopsora pachyrhizi (the causal agent of Asian soybean rust); test: Test A: preventive spray on soybean seedlings, visual disease rating (100 = 100% control; * 50 ppm, ** 10 ppm, *** 250 ppm); conditions: 100 = 100% disease control
Procedure, shortened: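 Soybean seedlings sprayed to run-off with compound suspended in acetone/water with 250 ppm PEG400 surfactant, inoculated next day with P. pachyrhizi spores. Kept 24 h saturated at 22 °C, then 8 days at 22 °C before visual rating of disease control (0-100) relative to controls.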

[6] = tested on: Phakopsora pachyrhizi (the causal agent of Asian soybean rust); test: Test F: Compound 32 or 64 alone and in mixtures on soybean seedlings, observed (Obsd) and Colby expected (Exp) disease control; conditions: Phakopsora pachyrhizi; for pest or weed control at 0.303 ppm: Compound 64 0.303 ppm alone; for pest or weed control at 0.489 ppm: Compound 64 0.489 ppm alone
Text: The general protocol for preparing test compositions for Test F was as follows: Compound 32, Compound 64, azoxystrobin, benzovindiflupyr, bixafen, chlorothalonil, cyproconazole, epoxiconazole, fenpropidin, fenpropimorph, fluindapyr, flutriafol, fluxapyroxad, metominostrobin, picoxystrobin, prothioconazole, pydiflumetofen, pyraclostrobin, tebuconazole and trifloxystrobin were obtained as unformulated, technical-grade materials. Copper hydroxide and mancozeb was obtained as a formulated product marketed under the trademarks KOCIDE 3000 and MANZATE, respectively. Unformulated materials were first dissolved in acetone and then suspended at the desired concentration (in ppm) in acetone and purified water (50/50 mix by volume) containing 250 ppm of the surfactant Trem® 014 (polyhydric alcohol esters). Formulated materials were dispersed in sufficient water to give the desired concentration, and neither organic solvent nor surfactant was added to the suspension. The resulting test mixtures were then used in Test F. The tests were run on four individual plants and the results reported as the mean average of the four plants.
The presence of a synergistic effect between two active ingredients was established with the aid of the Colby equation (see Colby, S. R. “Calculating Synergistic and Antagonistic Responses of Herbicide Combinations”, Weeds, (1967), 15, 20-22):
Using the method of Colby, the presence of a synergistic interaction between two active ingredients is established by first calculating the predicted activity, p, of the mixture based on activities of the two components applied alone. If p is lower than the experimentally established effect, synergism has occurred. In the equation above, A is the fungicidal activity in percentage control of one component applied alone at rate x. The B term is the fungicidal activity in percentage control of the second component applied at rate y. The equation estimates p, the expected fungicidal activity of the mixture of A at rate x with B at rate y if their effects are strictly additive and no interaction has occurred.
The test mixture was sprayed to the point of run-off on soybean seedlings. The following day the seedlings were inoculated with a spore suspension of Phakopsora pachyrhizi (the causal agent of Asian soybean rust) and incubated in a saturated atmosphere at 22° C. for 24 h and then moved to a growth chamber at 22° C. for 8 days, after which time visual disease ratings were made.
Results for Test F are given in Tables B-1 through I-1 for Compound 32 and Tables B-2 through I-2 for Compound 64. Each table corresponds to a set of evaluations performed together at the same time. In each table, a rating of 100 indicates 100% disease control and a rating of 0 indicates no disease control (relative to the controls). Columns labeled “Obsd” indicate the average of results observed from test run on four individual plants. Columns labeled “Exp” indicate the expected value for each treatment mixture using the Colby equation.

[7] = Puccinia recondita, 10 ppm test suspension, wheat seedlings
[8] = Erysiphe necator, 250 ppm test suspension, grape seedlings
[9] = Blumeria graminis, wheat seedlings
[10] = Zymoseptoria tritici, wheat seedlings
[11] = 50 ppm test suspension, 0 = no control
[12] = Puccinia recondita, 50 ppm test suspension, 0 = no control
[13] = Erysiphe necator, 50 ppm test suspension, 0 = no control
[14] = 250 ppm test suspension, 0 = no control
[15] = Puccinia recondita, 10 ppm test suspension, 0 = no control

## CCO/C(=C\Oc1ccc(Cn2cc(C(=O)OCCCCl)cn2)cc1)C(F)(F)F [Compound 221, 3-chloropropyl 1-[[4-[[(1Z)-2-ethoxy-3,3,3-trifluoro-1-propen-1-yl]oxy]phenyl]methyl]-1H-pyrazole-4-carboxylate]
[1]; [7]
  pest or weed control at 10 ppm: 0%
[2]; [8]
  pest or weed control at 250 ppm: 41%
[3]; [9]
  pest or weed control at 250 ppm: 95%
[4]; [10]
  pest or weed control at 250 ppm: 10%

## CCOC(=O)c1cnn(Cc2cccc(O/C=C(\OCC)C(F)(F)F)c2F)c1 [compound 301]
[1]; [11]
  Test B disease control rating: 0%
[2]; [11]
  Test C disease control rating: 100* %
[5]; [11]
  Test A disease control rating: 100%

## CCOC(=O)c1cnn(Cc2ccc(OCC3(C(F)(F)F)OCCO3)s2)c1 [compound 273]
[1]; [12]
  pest or weed control at 50 ppm: 0%
[2]; Erysiphe necator, 250 ppm test suspension, 0 = no control
  pest or weed control at 250 ppm: 49%
[3]; Blumeria graminis, 0 = no control
  pest or weed control at 250 ppm: 65%
[4]; Zymoseptoria tritici, 0 = no control
  pest or weed control at 250 ppm: 20%

## CCOC(=O)c1cnn(Cc2cccc(O/C=C(\OCC)C(F)(F)F)c2)c1 [Compound 265, ethyl 1-[[3-[[(1Z)-2-ethoxy-3,3,3-trifluoro-1-propen-1-yl]oxy]phenyl]methyl]-1H-pyrazole-4-carboxylate]
[1]; [12]
  pest or weed control at 50 ppm: 0%
[2]; [13]
  pest or weed control at 50 ppm: 98%

## CCCCOC(=O)c1cnn(Cc2ccc(O/C=C(\OCC)C(F)(F)F)cc2)c1 [Compound 218, butyl 1-[[4-[[(1Z)-2-ethoxy-3,3,3-trifluoro-1-propen-1-yl]oxy]phenyl]methyl]-1H-pyrazole-4-carboxylate]
[1]; [7]
  pest or weed control at 10 ppm: 0%
[2]; [8]
  pest or weed control at 250 ppm: 75%
[3]; [9]
  pest or weed control at 250 ppm: 90%
[4]; [10]
  pest or weed control at 250 ppm: 53%

## CCO/C(=C\Oc1cccc(Cn2cc(C(=O)NC)cn2)c1)C(F)(F)F [compound 403]
[2]; [14]
  Test C disease control rating: 74*** %
[5]; [11]
  Test A disease control rating: 54%
[3]; 0 = no control
  Test E disease control rating: 0*** %
[4]; 0 = no control
  Test D disease control rating: 17*** %

## CCOC(=O)c1cnn(Cc2ccc(OCC3(C(F)(F)F)OCCO3)c(F)c2)c1 [Compound 263, ethyl 1-[[3-fluoro-4-[[2-(trifluoromethyl)-1,3-dioxolan-2-yl]methoxy]phenyl]methyl]-1H-pyrazole-4-carboxylate]
[1]; [15]
  pest or weed control at 10 ppm: 0%
[2]; [13]
  pest or weed control at 50 ppm: 100%

## CCOC(=O)c1cnn(COc2ccc(O/C=C(\OCC)C(F)(F)F)cc2)c1 [Compound 364, ethyl 1-[[4-[[(1Z)-2-ethoxy-3,3,3-trifluoro-1-propen-1-yl]oxy]phenoxy]methyl]-1H-pyrazole-4-carboxylate]
[1]; [12]
  pest or weed control at 50 ppm: 0%
[2]; [13]
  pest or weed control at 50 ppm: 100%
[3]; Blumeria graminis, 50 ppm test suspension, 0 = no control
  pest or weed control at 50 ppm: 56%
[4]; Zymoseptoria tritici, 50 ppm test suspension, 0 = no control
  pest or weed control at 50 ppm: 0%

## COC(COc1ccc(Cn2cc(Br)cn2)cc1)(O[Si](C)(C)C)C(F)(F)F (centres unmarked) [compound 395]
[1]; [12]
  pest or weed control at 50 ppm: 100%
[2]; [13]
  pest or weed control at 50 ppm: 100%
[5]; Phakopsora pachyrhizi, 50 ppm test suspension, 0 = no control
  pest or weed control at 50 ppm: 100%

## O=C(COC(=O)c1cnn(Cc2ccc(OCC3(C(F)(F)F)OCCO3)cc2)c1)c1ccccc1 [compound 170]
[1]; 10 ppm test suspension, wheat seedlings
  Test B disease control rating: 0%
[2]; 50 ppm test suspension, grape seedlings
  Test C disease control rating: 100* %
[5]; 10 ppm test suspension, soybean seedlings
  Test A disease control rating: 100%

## CCOC(=O)c1cnn(Cc2ccc(O/C=C(\OCC)C(F)(F)F)cc2)c1 [Compound 64, ethyl 1-[[4-[[(1Z)-2-ethoxy-3,3,3-trifluoro-1-propen-1-yl]oxy]phenyl]methyl]-1H-pyrazole-4-carboxylate]
[1]; Puccinia recondita, 250 ppm test suspension, wheat seedlings
  pest or weed control at 250 ppm: 99%
[3]; [9]
  pest or weed control at 250 ppm: 99%
[6]; Table B-2
  pest or weed control at 0.303 ppm: 53%
  pest or weed control at 0.489 ppm: 68%
[6]; Table C-2
  pest or weed control at 0.303 ppm: 34%
  pest or weed control at 0.489 ppm: 63%
[6]; Table D-2
  pest or weed control at 0.303 ppm: 49%
  pest or weed control at 0.489 ppm: 63%
[6]; Table E-2
  pest or weed control at 0.303 ppm: 78%
  pest or weed control at 0.489 ppm: 77%
[6]; Table F-2
  pest or weed control at 0.303 ppm: 37%
  pest or weed control at 0.489 ppm: 68%
[6]; Table G-2
  pest or weed control at 0.303 ppm: 52%
  pest or weed control at 0.489 ppm: 50%
[6]; Table H-2
  pest or weed control at 0.303 ppm: 50%
  pest or weed control at 0.489 ppm: 70%
[6]; Table I-2
  pest or weed control at 0.303 ppm: 50%
  pest or weed control at 0.489 ppm: 81%
[4]; [10]
  pest or weed control at 250 ppm: 73%

## CCOC(=O)c1cnn(Cc2ccc(OCC(O)(O)C(F)(F)F)c(F)c2F)c1 [Compound 431]
[2]; [14]
  Test C disease control rating: 36%
[3]; 0 = no control
  Test E disease control rating: 96%
[4]; 0 = no control
  Test D disease control rating: 93%

## CCOC(=O)c1cnn(COc2ccc(O/C=C(\OCC)C(F)(F)F)c(F)c2)c1 [compound 454]
[1]; [15]
  pest or weed control at 10 ppm: 0%
[2]; Erysiphe necator, 10 ppm test suspension, 0 = no control
  pest or weed control at 10 ppm: 100%
[5]; Phakopsora pachyrhizi, 10 ppm test suspension, 0 = no control
  pest or weed control at 10 ppm: 100%

## CCO/C(=C\Oc1ccc(Cn2cc(C(=O)NCC(F)F)cn2)cc1)C(F)(F)F [compound 436]
[1]; [11]
  Test B disease control rating: 0%
[2]; [14]
  Test C disease control rating: 48*** %
[5]; [11]
  Test A disease control rating: 99%
[3]; 0 = no control
  Test E disease control rating: 0*** %
